From US9029384B2, “Phosphatidylinositol 3-kinase inhibitors” (Gilead Calistoga LLC, priority 2012, dated 2015)

What was measured:
basophils = test: Basophil activation in human whole blood (Flow2 CAST kit, CD63 positive cells); type: cell-based; settings: basophils activated with anti-FcεRI mAb or fMLP, geometric mean
How it was run: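 Human whole blood (K2-EDTA) preincubated 60 minutes at 37° C with compound serial dilutions or DMSO (0.3% final), then stimulated with anti-FcεRI mAb or fMLP and stained for CD63/CCR3. Percent CD63+ among ≥200 CCR3-high basophils by flow cytometry, normalized to stimulated vehicle as 100%. EC50 from four-parameter fits, geometric means in nM, concentrations corrected for reagent dilution.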

[1] = Hepatocyte stability, 1% final DMSO, 2 μM substrate (t1/2^a); type: in vitro ADME; settings: human, cryopreserved hepatocytes, TA with 1% final DMSO, 2 μM substrate, samples at 0, 1, 2, 4 hours; read-out: human hepatocyte t½^a
Method: This assay was used to evaluate the metabolic stability of test articles (TA) following incubation in cryopreserved hepatocytes by monitoring parent drug disappearance via […]. The TA with 1% final DMSO concentration was incubated with 1 million hepatocytes/ml at 2 μM substrate in duplicate. The incubation was carried out at 37° C. with 5% CO2 and saturating humidity.

PI3Kδ = biological target: T1, PI3Kδ (Homo sapiens, UniProt O00329); test: Enzymatic activity of PI3K isoforms, TR-FRET assay (PIP3 formation); type: biochemical; settings: PI3Kδ; TR-FRET, 2×Km ATP, 10 μM PIP2; read-out: IC50
T1 construct: made in house
How it was run: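 Recombinant heterodimeric class I PI3K; PIP3 product measured by TR-FRET competition with labelled PIP3 for Eu-GRP-1 PH domain. Reaction 30 min at 25 °C, stopped with 10 mM EDTA.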

T1 sequence (O00329 whole entry, canonical isoform): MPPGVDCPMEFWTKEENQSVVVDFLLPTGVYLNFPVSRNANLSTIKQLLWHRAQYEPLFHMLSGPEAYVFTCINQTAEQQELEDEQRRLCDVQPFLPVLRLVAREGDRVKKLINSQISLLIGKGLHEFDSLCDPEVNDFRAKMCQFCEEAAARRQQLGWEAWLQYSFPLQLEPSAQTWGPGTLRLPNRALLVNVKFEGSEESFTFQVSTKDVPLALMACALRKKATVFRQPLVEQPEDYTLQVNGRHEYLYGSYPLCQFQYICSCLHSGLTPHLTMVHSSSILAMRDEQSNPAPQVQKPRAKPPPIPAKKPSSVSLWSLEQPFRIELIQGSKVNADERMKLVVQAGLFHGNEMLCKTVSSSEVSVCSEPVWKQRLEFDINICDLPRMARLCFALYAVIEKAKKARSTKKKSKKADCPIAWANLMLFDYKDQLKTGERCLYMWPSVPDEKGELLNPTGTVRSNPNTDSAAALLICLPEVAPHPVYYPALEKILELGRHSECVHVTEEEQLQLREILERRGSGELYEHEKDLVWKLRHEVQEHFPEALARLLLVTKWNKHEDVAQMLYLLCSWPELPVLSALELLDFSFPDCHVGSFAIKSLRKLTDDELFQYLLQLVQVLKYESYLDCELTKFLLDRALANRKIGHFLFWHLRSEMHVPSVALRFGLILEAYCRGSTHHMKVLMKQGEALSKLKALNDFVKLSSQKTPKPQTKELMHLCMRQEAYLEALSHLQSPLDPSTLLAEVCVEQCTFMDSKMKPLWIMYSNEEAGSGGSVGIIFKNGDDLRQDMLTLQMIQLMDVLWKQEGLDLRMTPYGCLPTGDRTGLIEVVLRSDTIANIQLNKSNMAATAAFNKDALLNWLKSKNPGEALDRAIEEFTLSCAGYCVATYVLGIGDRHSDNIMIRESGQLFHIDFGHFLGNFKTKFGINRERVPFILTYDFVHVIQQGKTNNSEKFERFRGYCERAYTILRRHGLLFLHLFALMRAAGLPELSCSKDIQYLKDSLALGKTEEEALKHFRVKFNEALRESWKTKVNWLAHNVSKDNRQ
T1 sequence (P27986 whole entry partner, canonical isoform): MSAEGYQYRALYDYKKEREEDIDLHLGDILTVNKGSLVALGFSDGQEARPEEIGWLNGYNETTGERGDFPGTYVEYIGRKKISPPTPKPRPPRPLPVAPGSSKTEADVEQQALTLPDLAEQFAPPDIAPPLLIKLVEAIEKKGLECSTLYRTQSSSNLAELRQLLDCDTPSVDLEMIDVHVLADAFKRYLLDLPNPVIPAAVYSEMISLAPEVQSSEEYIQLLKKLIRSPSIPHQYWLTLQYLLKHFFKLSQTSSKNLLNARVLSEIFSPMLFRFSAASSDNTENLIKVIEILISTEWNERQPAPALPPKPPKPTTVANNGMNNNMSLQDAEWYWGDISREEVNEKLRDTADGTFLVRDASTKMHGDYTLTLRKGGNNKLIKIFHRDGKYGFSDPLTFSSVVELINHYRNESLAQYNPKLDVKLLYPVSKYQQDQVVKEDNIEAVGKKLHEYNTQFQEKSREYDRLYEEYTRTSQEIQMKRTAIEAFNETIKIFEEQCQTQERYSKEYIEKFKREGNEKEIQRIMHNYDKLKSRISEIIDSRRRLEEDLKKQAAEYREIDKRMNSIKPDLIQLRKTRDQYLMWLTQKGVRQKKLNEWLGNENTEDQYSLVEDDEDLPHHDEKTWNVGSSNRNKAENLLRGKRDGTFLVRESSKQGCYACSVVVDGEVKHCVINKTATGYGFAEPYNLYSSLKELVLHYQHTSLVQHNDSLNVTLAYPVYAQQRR

| SMILES | EC50 (basophils) [nM] | half-life at 2 μM [1] [h] | IC50 (PI3Kδ) [nM] | EC50 (basophils; Homo sapiens) [nM] |
| --- | --- | --- | --- | --- |
| Cc1ccc(F)cc1-n1c(C(C)Nc2nc(N)nc(N)c2C#N)nc2cccc(Cl)c2c1=O (single isomer, unassigned) [Compound 201a-2] | 1 to 10 | 6 to 10 | 1 to 10 | – |
| Cc1ccc(F)c2nc(C(C)Nc3nc(N)nc(N)c3C#N)n(-c3cc(F)cc(F)c3)c(=O)c12 (single isomer, unassigned) [Compound 25a] | – | 1 to 3 | < 1 | < 1 |
| CC(Nc1nc(N)nc(N)c1C(N)=O)c1nc2cccc(Cl)c2c(=O)n1-c1cccc(C(F)F)c1 (single isomer, unassigned) [Compound 100a] | – | 1 to 3 | 1 to 10 | 1 to 10 |
| CC(Nc1nc(N)nc(N)c1C#N)c1nc2c(Cl)ccc(Cl)c2c(=O)n1-c1ccccc1 (single isomer, unassigned) [Compound 50a] | – | 6 to 10 | < 1 | < 1 |
| Cc1cccc2c(=O)n(-c3cc(F)cc(F)c3)c(C(C)Nc3nc(N)nc(N)c3C#N)nc12 (single isomer, unassigned) [Compound 75a] | – | > 10 | 1 to 10 | 10 to 50 |
| COc1cc(F)cc(-n2c(C(C)Nc3nc(N)nc(N)c3C#N)nc3cccc(Cl)c3c2=O)c1 (single isomer, unassigned) [Compound 192a] | – | 1 to 3 | 1 to 10 | < 1 |
| CCC(Nc1nc(N)nc(N)c1C#N)c1nc2cccc(Cl)c2c(=O)n1-c1cc(F)cc(F)c1 (single isomer, unassigned) [Compound 78a] | – | 6 to 10 | 1 to 10 | 1 to 10 |
| CCC(Nc1nc(N)nc(N)c1C#N)c1nc2c(C)cccc2c(=O)n1-c1cc(F)cc(F)c1 (single isomer, unassigned) [Compound 76a] | – | > 10 | 10 to 50 | > 50 |
| Cc1ccc(F)c2c(=O)n(-c3cccc(C#N)c3)c(C(C)Nc3nc(N)nc(N)c3C#N)nc12 (single isomer, unassigned) [Compound 82a] | – | 6 to 10 | 10 to 50 | > 50 |
| CC(Nc1nc(N)nc(N)c1C#N)c1nc2c(F)ccc(Cl)c2c(=O)n1-c1cc(F)cc(F)c1 (single isomer, unassigned) [Compound 15a] | – | 3 to 6 | < 1 | < 1 |
| CC(C)c1cccc(-n2c(C(C)Nc3nc(N)nc(N)c3C#N)nc3cccc(Cl)c3c2=O)c1 (single isomer, unassigned) [Compound 107a] | – | < 1 | 1 to 10 | 1 to 10 |
| Cc1ccc(Cl)c2c(=O)n(-c3cc(F)cc(F)c3)c(C(C)Nc3nc(N)nc(N)c3C#N)nc12 (single isomer, unassigned) [Compound 73a] | – | 3 to 6 | 1 to 10 | < 1 |
| Cc1ccc(Cl)c2c(=O)n(-c3ccccc3)c(C(C)Nc3nc(N)nc(N)c3C#N)nc12 (single isomer, unassigned) [Compound 4a] | – | 6 to 10 | < 1 | 1 to 10 |
| Cc1ccc(Cl)c2c(=O)n(-c3cccc(Cl)c3)c(C(C)Nc3nc(N)nc(N)c3C#N)nc12 (single isomer, unassigned) [Compound 5a] | – | 1 to 3 | < 1 | 1 to 10 |
| CC(Nc1nc(N)nc(N)c1C#N)c1nc2cccc(C(F)F)c2c(=O)n1-c1cc(F)cc(C(F)F)c1 (single isomer, unassigned) [Compound 99a] | – | 6 to 10 | 1 to 10 | 10 to 50 |
| CC(C)CC(Nc1nc(N)nc(N)c1C#N)c1nc2cccc(Cl)c2c(=O)n1-c1cc(F)cc(F)c1 (single isomer, unassigned) [Compound 163a] | – | 1 to 3 | 1 to 10 | > 50 |
| COc1cc(OC)cc(-n2c(C(C)Nc3nc(N)nc(N)c3C#N)nc3cccc(Cl)c3c2=O)c1 (single isomer, unassigned) [Compound 51a] | – | 3 to 6 | 1 to 10 | 1 to 10 |
